Measurements from the supplement of paper PMC10307832.

Assays:
Experiment in all cases: relative viability (nuclei count vs DMSO), 5 days (fraction); higher = more cells survive
Adavosertib + Phenformin = compound: C=CCn1c(=O)c2cnc(Nc3ccc(N4CCN(C)CC4)cc3)nc2n1-c1cccc(C(C)(C)O)n1 [Adavosertib] + N=C(N)NC(=N)NCCc1ccccc1 [Phenformin] (partner 250 µM)
Outline: (§1)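 Values are medians from duplicate plates. Each reflects relative viability, defined as the nuclei count of treated wells over that of vehicle wells. Lung cancer cell lines in 1536-well plates were pin-tool dosed one day after seeding with one drug alone or with a fixed anchor-drug dose plus five library-drug doses (not always all listed) in √10 steps, then fixed, stained and imaged at 4× after 5 days.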

Adavosertib + Vorinostat = compound: C=CCn1c(=O)c2cnc(Nc3ccc(N4CCN(C)CC4)cc3)nc2n1-c1cccc(C(C)(C)O)n1 [Adavosertib] + O=C(CCCCCCC(=O)Nc1ccccc1)NO [Vorinostat] (partner 1 µM)
Outline: as §1

Nelarabine + Lapatinib = compound: COc1nc(N)nc2c1ncn2[C@@H]1O[C@H](CO)[C@@H](O)[C@@H]1O [Nelarabine] + CS(=O)(=O)CCNCc1ccc(-c2ccc3ncnc(Nc4ccc(OCc5cccc(F)c5)c(Cl)c4)c3c2)o1 [Lapatinib] (partner 2 µM)
Outline: as §1

Nelarabine + Vorinostat = compound: COc1nc(N)nc2c1ncn2[C@@H]1O[C@H](CO)[C@@H](O)[C@@H]1O [Nelarabine] + O=C(CCCCCCC(=O)Nc1ccccc1)NO [Vorinostat] (partner 1 µM)
Outline: as §1

Row | Cell Line | relative viability (Adavosertib + Phenformin; first compound 0.01 µM) | relative viability (Adavosertib + Phenformin; first compound 0.03162 µM) | relative viability (Adavosertib + Phenformin; first compound 0.1 µM) | relative viability (Adavosertib + Phenformin; first compound 0.3162 µM) | relative viability (Adavosertib + Vorinostat; first compound 0.01 µM) | relative viability (Adavosertib + Vorinostat; first compound 0.03162 µM) | relative viability (Adavosertib + Vorinostat; first compound 0.1 µM) | relative viability (Adavosertib + Vorinostat; first compound 0.3162 µM) | relative viability (Nelarabine + Lapatinib; first compound 0.01 µM) | relative viability (Nelarabine + Lapatinib; first compound 0.03162 µM) | relative viability (Nelarabine + Lapatinib; first compound 0.1 µM) | relative viability (Nelarabine + Lapatinib; first compound 0.3162 µM) | relative viability (Nelarabine + Lapatinib; first compound 1 µM) | relative viability (Nelarabine + Vorinostat; first compound 0.01 µM) | relative viability (Nelarabine + Vorinostat; first compound 0.03162 µM) | relative viability (Nelarabine + Vorinostat; first compound 0.1 µM) | relative viability (Nelarabine + Vorinostat; first compound 0.3162 µM) | relative viability (Nelarabine + Vorinostat; first compound 1 µM)
1 | UMC-11 | 0.341 | 0.315 | 0.318 | 0.29 | 0.438 | 0.405 | 0.346 | 0.308 | 1.05 | 0.863 | 1.02 | 1.02 | 1.14 | 0.385 | 0.306 | 0.386 | 0.371 | 0.404
2 | COR-L 105 | 0.558 | 0.443 | 0.467 | 0.409 | 0.892 | 0.848 | 0.898 | 0.677 | 0.362 | 0.306 | 0.374 | 0.285 | 0.368 | 0.805 | 0.887 | 0.952 | 1.12 | 0.726
3 | NCI-H2085 | 0.668 | 0.757 | 0.784 | 0.761 | 0.782 | 0.807 | 0.765 | 0.649 | 0.889 | 0.804 | 0.74 | 0.754 | 0.835 | 0.788 | 0.814 | 0.77 | 0.819 | 0.816
4 | LK-2 | 0.75 | 0.435 | 0.364 | 0.397 | 0.265 | 0.362 | 0.351 | 0.306 | 1.23 | – | 1.03 | 1.02 | 1.05 | 0.242 | 0.256 | 0.334 | 0.294 | 0.283
5 | NCI-H2009 | 0.486 | 0.551 | 0.496 | 0.427 | 0.829 | 0.743 | 0.9 | 0.676 | 1.04 | 1.03 | 0.869 | 1.07 | 1.03 | 0.789 | 0.676 | 0.663 | 0.8 | 0.661
6 | BEN | 0.277 | 0.261 | 0.299 | 0.25 | 0.628 | 0.553 | 0.669 | 0.592 | 0.905 | 0.69 | 0.941 | 0.684 | 0.778 | 0.662 | 0.575 | 0.592 | 0.609 | 0.618
7 | RERF-LC-KJ | 0.363 | 0.381 | 0.4 | 0.439 | 0.65 | 0.708 | 0.629 | 0.654 | 0.912 | 0.99 | 1.01 | 0.88 | 0.876 | 0.749 | 0.754 | 0.623 | 0.72 | 0.727
8 | LU99A | 0.963 | 0.808 | 0.982 | 0.826 | 0.485 | 0.486 | 0.462 | 0.307 | 1.15 | 1.04 | 1.19 | 1.12 | 1.1 | 0.615 | 0.417 | 0.579 | 0.467 | 0.39
9 | PC-14 | 0.508 | 0.619 | 0.671 | 0.291 | 0.841 | 0.85 | 0.638 | 0.183 | 0.327 | 0.342 | 0.307 | 0.328 | 0.353 | 0.832 | 0.736 | 0.662 | 0.578 | 0.691
10 | NCI-H650 | 0.422 | 0.498 | 0.458 | 0.377 | 0.367 | 0.428 | 0.443 | 0.333 | 0.97 | 0.842 | 0.929 | 1.07 | 0.887 | 0.415 | 0.376 | 0.4 | 0.479 | 0.499
11 | NCI-H1651 | 0.3 | 0.354 | 0.31 | 0.237 | 0.524 | 0.626 | 0.567 | 0.538 | 1.1 | 1.02 | 1.05 | 0.881 | 0.854 | 0.487 | 0.591 | 0.525 | 0.566 | 0.553
12 | NCI-H2023 | 0.437 | 0.389 | 0.358 | 0.193 | 0.671 | 0.494 | 0.348 | 0.16 | 1.48 | 1.15 | 0.642 | 0.812 | 0.948 | 0.793 | 0.821 | 0.525 | 0.71 | 0.687
13 | NCI-H2087 | 0.456 | 0.442 | 0.525 | 0.461 | 0.812 | 0.637 | 0.702 | 0.826 | 1 | 1.02 | 1.09 | 1.07 | 1.32 | 0.674 | 0.551 | 1.07 | 0.874 | 0.898
14 | EKVX | 0.249 | 0.238 | 0.227 | 0.234 | 0.843 | 0.718 | 0.697 | 0.682 | 0.2 | 0.155 | 0.168 | 0.204 | 0.21 | 0.81 | 0.667 | 0.585 | 0.817 | 0.788
15 | NCI-H1975 | 0.419 | 0.392 | 0.389 | 0.309 | 0.973 | 0.676 | 0.676 | 0.571 | 1.27 | 0.958 | 0.92 | 1.11 | 0.982 | 0.87 | 0.7 | 0.778 | 0.796 | 0.76
16 | NCI-H520 | 0.667 | 0.547 | 0.657 | 0.757 | 0.756 | 0.734 | 0.681 | 0.59 | 0.991 | 0.947 | 1.31 | 0.889 | 0.887 | 0.905 | 0.757 | 0.676 | 0.746 | 0.828
17 | NCI-H647 | 0.495 | 0.533 | 0.354 | 0.249 | 0.632 | 0.538 | 0.643 | 0.212 | 1.37 | 0.807 | 1.11 | 1.34 | 1.14 | 0.764 | 0.798 | 0.716 | 0.456 | 0.583
18 | NCI-H1755 | 0.643 | 0.615 | 0.613 | 0.63 | 0.935 | 0.864 | 0.682 | 0.546 | 1.27 | 0.937 | 1.09 | 1.29 | 1.1 | 0.954 | 0.742 | 0.682 | 0.861 | 0.873
19 | SK-LU-1 | 0.57 | 0.484 | 0.458 | 0.223 | 0.734 | 0.831 | 0.666 | 0.453 | 1.24 | 0.617 | 0.887 | 0.94 | 0.885 | 0.789 | 0.585 | 0.924 | 0.94 | 0.845
20 | LXF-289 | 0.528 | 0.553 | 0.527 | 0.561 | 0.795 | 0.791 | 0.768 | 0.735 | 0.97 | 0.883 | 0.884 | 0.941 | 0.903 | 0.84 | 0.698 | 0.674 | 0.807 | 0.662
21 | NCI-H1993 | 0.527 | 0.537 | 0.475 | 0.589 | 0.725 | 0.791 | 0.84 | 1.05 | 0.836 | 0.774 | 0.81 | 0.67 | 0.785 | 0.742 | 0.728 | 0.736 | 0.592 | 0.694
22 | LCLC-97TM1 | 0.428 | 0.397 | 0.488 | 0.417 | 0.809 | 0.71 | 0.77 | 0.573 | 0.854 | 0.778 | 0.667 | 0.818 | 1.14 | – | – | 0.464 | 0.819 | 0.713
23 | NCI-H2347 | 0.306 | 0.496 | 0.5 | 0.411 | 0.548 | 0.71 | 0.615 | 0.533 | 0.977 | 0.904 | 0.94 | 0.954 | 0.992 | 0.584 | 0.69 | 0.569 | 0.61 | 0.455
24 | NCI-H596 | 0.662 | 0.909 | 0.754 | 1 | 0.691 | 0.637 | 0.613 | 0.415 | 1.15 | 1.13 | 1.27 | 0.892 | 1.07 | 0.546 | 0.608 | 0.613 | 0.671 | 0.661
25 | NCI-H727 | 0.543 | 0.593 | 0.531 | 0.565 | 0.934 | 1.13 | 1.13 | 1.15 | 0.909 | 0.896 | 0.922 | 0.74 | 0.829 | 1.24 | 1.17 | 1.13 | 1.27 | 1.19
26 | EPLC-272H | 0.314 | 0.306 | 0.353 | 0.245 | 0.384 | 0.481 | 0.281 | 0.14 | 1.12 | 0.798 | 0.976 | 1.02 | 0.86 | 0.313 | 0.411 | 0.459 | 0.387 | 0.385
27 | NCI-H2170 | 0.444 | 0.404 | 0.407 | 0.441 | 0.866 | 0.818 | 0.788 | 0.676 | 0.284 | 0.232 | 0.262 | 0.293 | 0.28 | 1.09 | 0.835 | 0.742 | 0.878 | 0.71
28 | NCI-H1355 | 0.474 | 0.455 | 0.426 | 0.403 | 0.609 | 0.649 | 0.679 | 0.568 | 1.14 | 0.7 | 0.929 | 0.993 | 1.07 | 0.665 | 0.673 | 0.544 | 0.679 | 0.705
29 | SK-MES-1 | 0.66 | 0.704 | 0.635 | 0.208 | 1.09 | 1.06 | 0.778 | 0.348 | 0.432 | 0.544 | 0.456 | 0.563 | 0.555 | 1.36 | 1.12 | 1.18 | 1.36 | 1.3
